Consider ten molecules from publication PMC8623047, “Novel Antioxidants and α-Glycosidase and Protein Tyrosine Phosphatase 1B Inhibitors from an Endophytic Fungus Penicillium brefeldianum F4a” (Journal of Fungi, 2021).

One test concerns the target T1, PTP1B (Homo sapiens, UniProt P18031).
T1 sequence (P18031 1-435): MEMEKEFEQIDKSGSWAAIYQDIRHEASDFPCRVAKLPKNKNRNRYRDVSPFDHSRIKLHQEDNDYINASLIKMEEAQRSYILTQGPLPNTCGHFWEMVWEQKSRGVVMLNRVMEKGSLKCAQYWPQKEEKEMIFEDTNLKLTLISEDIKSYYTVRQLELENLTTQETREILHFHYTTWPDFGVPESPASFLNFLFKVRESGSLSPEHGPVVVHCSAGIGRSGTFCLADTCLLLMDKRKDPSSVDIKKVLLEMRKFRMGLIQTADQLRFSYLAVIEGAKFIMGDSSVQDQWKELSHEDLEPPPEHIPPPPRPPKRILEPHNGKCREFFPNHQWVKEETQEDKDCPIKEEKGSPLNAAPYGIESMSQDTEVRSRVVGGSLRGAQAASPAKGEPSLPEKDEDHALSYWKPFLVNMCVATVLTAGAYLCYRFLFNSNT
Description: PTP1B inhibitory assay (p-NPP substrate). It counts as biochemical. The note with it: mean ± SD, n = 3; sample concentration achieving 50% of activity. The method, then:
The PTP1B inhibitory activity was established according to the previously reported methods. The reagent para-nitrophenyl phosphate (p-NPP) was used as a substrate for PTP1B. Then, 81 μL enzyme in buffer (pH 7.5), including EDTA (1 mM), Tris-HCl (25 mM), dithiothreitol (DTT) (1 mM), β-mercaptoethanol (2 mM), and 10 μL of sample at various concentrations in DMSO (the blank control used 10 μL of DMSO instead of the sample), was incubated in 96-well plates at 37 °C for 10 min. Then, 4 μL p-NPP (10 mM) in buffer was added and incubated at 37 °C for 30 min. Next, 5 μL of 2 M NaOH solution was added to terminate the reaction. Then, the absorbance was determined at 405 nm wavelength.

The nature of test [1]: DPPH radical scavenging assay. The note with it: mean ± SD, n = 3; 30 min, 517 nm. The method, then: The DPPH free radicals scavenging assay was tested according to the previously reported methods. First, 100 μL of sample at different concentrations in ethanol (the blank control used 100 μL of ethanol instead of the sample) was added to 96 wells, followed by 100 μL of 0.15 mM DPPH. […] L-Ascorbic acid was used as the positive control.
A general note: Loss of DPPH colour is used to gauge radical scavenging.

Test [2] can be described thus: ABTS radical scavenging assay. The note with it: mean ± SD, n = 3; 6 min, 734 nm. The method, then: The ABTS free radical scavenging assay was tested according to the previously reported methods. […] The mixture was incubated in darkness at room temperature for 12 h before use. […] Then, 100 μL of the sample at various concentrations in ethanol (the blank control used 100 μL of ethanol instead of the sample) was added to 3.0 mL of diluted ABTS^•+ solution and mixed vigorously. […] L-Ascorbic acid was used as the positive control.

For test [3] the following is noted: previous studies; cited from earlier work.

As usually defined, the EC50 is the concentration at which the effect is half-maximal. Read a high EC50 as a need for much substance. Take `COc1cc(O)cc(C)c1Cc1oc(C[C@@H](C)O)cc1C(=O)O` [Compound 1, peniorcinol A]: the results for the EC50 (on PTP1B; in test [1]; in test [2]) were more than 50 µM, more than 100 µM and 21.9 ± 1.06 µM, respectively.

Turning to `COc1cc(O)cc(C)c1Cc1oc(C)cc1C(=O)O` [Compound 2, peniorcinol B], the EC50 at PTP1B is more than 50 µM; in test [1], more than 100 µM; in test [2], 28.2 ± 2.87 µM.

For the molecule `C=C1C=CC(=O)[C@]1(CO)Cc1c(C)cc(O)cc1OC` [Compound 3, peniorcinol C], the EC50 on PTP1B was more than 50 µM; in test [1] it was more than 100 µM; in test [2] it was 32.7 ± 3.86 µM.

As to `C[C@]1(O)Cc2oc3c(C(=O)O)c(O)c(O)cc3c(=O)c2CO1` [Compound 4, penialidin A], the results for the 50% effective concentration (EC50) (at PTP1B; in test [1]; in test [2]) were more than 50 µM, more than 100 µM and 14.5 ± 0.46 µM, respectively. Also, in test [3], the “DPPH• scavenging activity IC50” value was 156.38 µg/mL.

For `C[C@]1(O)Cc2oc3cc(O)c(O)cc3c(=O)c2CO1` [Compound 5, penialidin F], the EC50 was more than 50 µM at PTP1B, 28.4 ± 3.16 µM in test [1] and 7.61 ± 0.46 µM in test [2].

Consider `CC1=Cc2oc3cc(O)c(O)cc3c(=O)c2CO1` [Compound 6, myxotrichin C], for which the values for the EC50 (on PTP1B; in test [1]; in test [2]) were more than 50 µM, 30.1 ± 2.83 µM and 15 ± 2.57 µM, respectively.

The molecule `Cc1cc2nc3c(=O)[nH]c(=O)nc-3n(C[C@H](O)[C@H](O)[C@H](O)CO)c2cc1C` [Compound 7, riboflavin] displayed an EC50 on PTP1B of 8.87 ± 0.91 µM.

As to `O=C(O)Cc1c[nH]c2ccccc12` [Compound 8, indole-3-acetic acid], at PTP1B, the EC50 was 11.7 ± 1.03 µM.

Take `COc1cc(O)cc(C)c1CC(=O)O` [Compound 9, 2-(4-hydroxy-2-methoxy-6-methylphenyl) acetic acid]: the EC50 is more than 50 µM at PTP1B, more than 100 µM in test [1] and 30 ± 4.17 µM in test [2].

In the case of `O=C1O[C@H]([C@@H](O)CO)C(O)=C1O` [L-Ascorbic acid, reference compound], the EC50 in test [1] turned out to be 6.12 ± 0.17 µM; in test [2] it was 18.8 ± 3.39 µM.
